Assay results from patent publication US20140329903A1, “TREATMENT OF NEURODEGENERATIVE DISEASES” (ACADIA PHARMACEUTICALS INC., priority 2011, published 2014).
Where “and” joins values, the source holds several entries; their conditions need not be identical. Equal values may be shown once. Entries after “also recorded” stand apart in the source; their conditions may differ. Read-outs that look alike come from different tables or passages of the source.

Key:
NBRE & Nurr1 = assay: Reporter gene transcription assay pNBRE & Nurr1; type: cell-based
Text: (§1) We have enabled assays to detect ligand-induced gene transcription (reporter gene assays) in order to confirm results obtained in BRET2 assays.

[1] = test system: Retinoid X Receptor (RXR) response element RXRE; assay: Reporter gene transcription assay pRXRE; type: cell-based
Text: as §1

RXRE & Nurr1 = assay: Reporter gene transcription assay pRXRE & Nurr1; type: cell-based
Text: as §1

[2] = test system: 6-hydroxydopamine (6OHDA) lesions of the substantia nigra pars compacta (SNc); assay: 6OHDA lesion of the SNc, bexarotene s.c. continuous infusion after lesion; type: in vivo, rats; conditions: for Effective in rat PD model?: 6OHDA lesioning of the substantia nigra
Description: The endpoints assessed were: • Neuroprotection measured by tyrosine hydroxylase (TH) and ret-c (co-receptor for the trophic factor GDNF) staining in the substantia nigra (SNc). • Behavioral assessments including rotorod, challenging beam, and spontaneous locomotion
Following the 28 days of treatment, animals were assessed in 3 tests of coordinated motor function (spontaneous locomotion, rotorod and challenging beam) and then tissue was collected to assess tyrosine hydroxylase and Ret-c immunofluorescence in the substantia nigra.
The Subjects and Surgical Procedures to Produce Lesions were as Described Above for i.c.v. Dosing.
They were then incubated in 0.9% physiological saline at 37° C. until surgically implanted. The pumps infused at a rate of […] for 28 days after implantation. […] After completion of the experiment, a subset of the osmotic pumps was removed. The pumps were weighed and aspirated in order to verify compound delivery.
(§2) Spontaneous Locomotion, rotorod, and challenging beam tests were conducted as described above for i.c.v. dosing.
Tyrosine Hydroxylase Fluorescent Immunohistochemistry was conducted as described above for i.c.v. dosing. Ret-c immunohistochemistry was conducted using brains fixed and SNc tissue sectioned as described above. […] Ret-c sections were then mounted on and imaged as described above for immunohistochemistry performed on TH.

[3] = test system: 6-hydroxydopamine (6OHDA) lesions of the substantia nigra pars compacta (SNc); assay: 6OHDA lesion of the SNc, bexarotene once daily orally after lesion; type: in vivo, rats
Description: . The endpoints assessed were: • Neuroprotection measured by tyrosine hydroxylase (TH) staining in the substantia nigra (SNc). • Behavioral assessments including rotorod, challenging beam, and spontaneous locomotion
. Following the 28 days of treatment, animals were assessed in 3 tests of coordinated motor function (spontaneous locomotion, rotorod and challenging beam) and then tissue was collected to assess tyrosine hydroxylase immunofluorescence in the substantia nigra. […].
The subjects and surgical procedures to produce lesions were as described above for i.c.v. dosing.
as §2
Novel object recognition (NOR) was conducted in a novel environment in two phases: sample and test. Subjects were placed into the NOR chamber, where two identical objects were placed. Each rat was allowed to explore for 3 min., and the time spent exploring at each position recorded. After 3 min., each rat was removed from the arena and placed back into its cage. The test phase was conducted 4 hours after the sample phase. During test, one familiar object (seen during sample) and one novel object was placed into the chamber, and each rat was allowed 3 min to explore. The test sessions were recorded on video and scored by an observer blind to each subject's treatment condition. For test data, % of exploration time spent at the novel object was determined and headtwitch assays.
Spontaneous Head Twitch: Subjects were place in a group of 4 animals into a clean holding tub, where they were closely observed for 8 min.
Tyrosine Hydroxylase Fluorescent Immunohistochemisty was conducted as described above for i.c.v. dosing.

[4] = Body weight gain on oral dosing; type: in vivo, rats
[5] = human, plasma, po
[6] = test system: cancer cell lines HN9N and HN21P; conditions: cited from earlier work
[7] = NDA #21055, cited from earlier work

C=C(c1ccc(C(=O)O)cc1)c1cc2c(cc1C)C(C)(C)CCC2(C)C [Bexarotene, bexarotene]
EC50 (NBRE & Nurr1): 0.017 µM
Eff % (NBRE & Nurr1; pNBRE & Nurr1, normalized to 9-cis retinoic acid): 83%
EC50 [1]: 0.144 µM
Eff % ([1]; pRXRE, normalized to 9-cis retinoic acid): 44%
EC50 (RXRE & Nurr1): 0.041 µM
Eff % (RXRE & Nurr1; pRXRE & Nurr1, normalized to 9-cis retinoic acid): 65%
Ret-c in the SNc (cell counts, percent immunopositive image, mean pixel intensity) ([2]; 1 mg/kg/day s.c. beginning 72 hours after 6OHDA lesion, vs vehicle): significantly improved
tyrosine hydroxylase immunofluorescence in the SNc ([2]; 1, 0.25, 0.0625 and 0.021 mg/kg/day s.c. beginning 72 hours after 6OHDA lesion, vs vehicle): significantly improved; also recorded: improved tyrosine hydroxylase and Ret-c expression
motor performance (challenging beam, rotorod, spontaneous locomotion) after 6OHDA ([2]; 1, 0.25, 0.0625 and 0.021 mg/kg/day s.c. for 28 days beginning 72 hours after lesion): not impaired relative to Sham controls; also recorded: reversed behavioral deficits
Effective in rat PD model? ([2]; s.c. 0.06 mg/kg/day): No
Effective in rat PD model? ([2]; s.c. 0.25 mg/kg/day, 0.25 mg/kg/day): effectively reversed behavioral deficits and regenerated neurons and Yes
Effective in rat PD model? ([2]; s.c. 1 mg/kg/day): Yes
Effective PD dose (rat), s.c. ([2]; s.c. continuous infusion, 6OHDA lesion model, listed as Targretin): 0.25 mg/kg/day
improvement of TH measures in the SNc ([3]; 0.3 mg/kg/day orally for 28 days beginning 3 days after lesion): not
normalization of behavior disrupted by lesion ([3]; 0.3 mg/kg/day orally for 28 days beginning 3 days post-lesion): not
TH positive cells, mean pixel intensity, % immunopositive, colocalization of TH and Neurotrace in the SNc ([3]; 1 or 3 mg/kg/day orally for 28 days beginning 3 days after lesion, vs vehicle): significantly improved; also recorded: improved tyrosine hydroxylase expression
behavior disrupted by lesion (challenging beam, rotorod, novel object recognition, head twitches) ([3]; 1 or 3 mg/kg/day orally for 28 days beginning 3 days post-lesion): normalized behavior disrupted by lesion; also recorded: reversed behavioral deficits
Effective PD dose (rat), p.o. ([3]; once daily p.o., 6OHDA lesion model, listed as Targretin): 1 mg/kg/day
Effective in rat PD model? ([3]; p.o. 1 mg/kg/day, 6OHDA lesioning of the substantia nigra, 1 mg/kg/day): effectively reversed behavioral deficits and regenerated neurons and Yes
% BW gain ([4]; PO 3 mg/kg/day once per day): 19.8 +/− 3.4%
% BW gain ([4]; PO 10 mg/kg/day once per day): 20.4 +/− 1.6%
% BW gain ([4]; PO 30 mg/kg/day once per day): 11.2 +/− 0.8%
% BW gain ([4]; PO 100 mg/kg/day once per day): 7.0 +/− 3.6%
body weight gain ([4]; higher oral doses): decrease in body weight gain
AUC [5]: 0.7 to 1.3 µM·h
tumor growth in nude mice injected with HN9N and HN21P ([6]; 60 mg/kg/day oral, NDA #21055): effective in preventing tumor growth
Effective anti-cancer dose (mice) ([6]; oral, Targretin NDA #21055): 60 mg/kg/day (mice)
plasma AUC ([7]; p.o. 3 mg/kg/day): 4.4 µM·h
plasma AUC ([7]; p.o. 10 mg/kg/day): 14.1 µM·h
plasma AUC ([7]; p.o. 30 mg/kg/day, 30 mg/kg/day): 24.3 μM * hr and 24 μM*hr μM * hr and 24 μM * hr
plasma AUC ([7]; p.o. 100 mg/kg/day, 100 mg/kg/day): 42.1 μM * hr and 42 μM*hr μM * hr and 42 μM * hr
